According to paper PMC7356390, “Dehydrozingerone, a Curcumin Analog, as a Potential Anti-Prostate Cancer Inhibitor In Vitro and In Vivo” (Molecules, 2020):

Key:
[1] = system: PLS10 cells; experiment: Cell cycle analysis (Guava cycle assay); assay type: cell-based, rat; details: 48 h
Method: Cells were treated with Cur (0–20 μM) and DZG (0–200 μM) for 48 h. Cells were harvested for analysis of the cell cycle distribution by the Guava cycle (a,b), while cyclin D1 expression was determined by Western blot analysis (c,d). The level of protein expression was quantified by IMAGE J software. Data are presented as mean ± S.D. of three independent experiments. * p < 0.05 and ** p < 0.01 vs. control (one-way ANOVA, Dunnett’s multiple comparisons test, tested groups vs. control group). TEXT PRINTED IN THE PICTURE: (a) Cur: G1: 39.76±7.07 (Cur (μM): 5); S: 15.20±2.22 (Cur (μM): 5); G2/M: 45.02±8.26 (Cur (μM): 5); G1: 43.45±4.60 (Cur (μM): 10); S: 15.45±1.20 (Cur (μM): 10); G2/M: 40.90±6.08 (Cur (μM): 10); G1: 41.00±2.40 (Cur (μM): 15); S: 16.35±2.05 (Cur (μM): 15); G2/M: 42.60±4.67 (Cur (μM): 15); G1: 46.28±4.32 (Cur (μM): 20); S: 13.68±2.05 (Cur (μM): 20); G2/M: 43.10±5.50 (Cur (μM): 20) | (b) DZG: G1: 36.75±0.35 (DZG (μM): 50); S: 16.30±0.71 (DZG (μM): 50); G2/M: 46.95±0.35 (DZG (μM): 50); G1: 36.73±3.41 (DZG (μM): 100); S: 17.17±1.29 (DZG (μM): 100); G2/M: 46.10±2.78 (DZG (μM): 100); G1: 42.88±7.45 (DZG (μM): 150); S: 17.90±1.82 (DZG (μM): 150); G2/M: 39.25±6.13 (DZG (μM): 150); G1: 52.95±7.52 (DZG (μM): 200); S: 16.23±1.02 (DZG (μM): 200); G2/M: 31.00±6.67 (DZG (μM): 200) DOUBTS OF THE COPYIST ABOUT THIS PICTURE: Control columns (panel a: G1: 38.86±4.93, S: 14.52±1.90, G2/M: 46.60±5.74; panel b: G1: 35.93±2.45, S: 15.90±2.11, G2/M: 48.18±2.51) are printed but left out of lines, as Control is not a substance
The PLS10 cells (1.0 × 10^5 cells per well) were plated into a 6-well plate overnight. Then, cells were treated with increasing concentrations of Cur (0–20 µM) or DZG (0–200 µM) in the present of 0.5% DMSO (vehicle control) for the next 48 h. Cell morphology was investigated and photographed under a microscope. The cell cycle distribution was determined using a Guava cycle assay (Guava Technologies, Hayward, CA, USA) according to the manufacturer’s protocols. Briefly, the cells were removed by trypsinization, and the cell suspension was fixed in ice-cold 70% methanol at −20°C. After that, the methanol was removed, and the cells were washed with PBS before being stained with a Guava cycle reagent for 30 min. Cell cycle distribution was determined on a Guava PCA Instrument using Guava®ViacountTM Software (Merck Ltd., Darmstadt, Germany).

[2] = intraperitoneal administration of 100 mg/kg; cited from earlier work
[3] = system: HT-29 cells; parameters: method as in PMID 23245566; details: cited from earlier work
[4] = system: PLS10 cells; parameters: method as in PMID 30499149; details: read-out: IC50 of Cur on PLS10 cells (previous study); cited from earlier work

SMILES | G1 phase cell population ([1]; DZG 150 µM) [%] | G2/M phase cell population ([1]; DZG 150 µM) [%] | G1 phase cell population ([1]; DZG 200 µM) [%] | G2/M phase cell population ([1]; DZG 200 µM) [%] | effect on serum aspartate aminotransferase, alanine transaminase, serum creatinine, blood urea and lactate dehydrogenase [2] | concentration range that suppressed proliferation of HT-29 cells (G2/M arrest) [3] [µM] | G1 phase cell population ([1]; Cur 20 µM) [%] | IC50 [4] [µM]
COc1cc(/C=C/C(C)=O)ccc1O [DZG, (E)-4-(4-hydroxy-3-methoxyphenyl)-but-3-en-2-one] | 43 | 39 | 53 | 31 | no effect | 250 to 500 |  | 
COc1cc(/C=C/C(=O)CC(=O)/C=C/c2ccc(O)c(OC)c2)ccc1O [Cur, Curcumin] |  |  |  |  |  |  | 46 | 26.5 ± 1.8
